The values that follow come from PMC2652407 (Journal of Medicinal Chemistry, 2009).

The target in experiment [1] is T1, hAdoMetDC (Homo sapiens, UniProt P17707).
T1 sequence (P17707 1-67 limits assumed): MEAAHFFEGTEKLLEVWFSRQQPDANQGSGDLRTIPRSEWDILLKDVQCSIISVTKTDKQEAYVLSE
T1 sequence (P17707 68-328 limits assumed): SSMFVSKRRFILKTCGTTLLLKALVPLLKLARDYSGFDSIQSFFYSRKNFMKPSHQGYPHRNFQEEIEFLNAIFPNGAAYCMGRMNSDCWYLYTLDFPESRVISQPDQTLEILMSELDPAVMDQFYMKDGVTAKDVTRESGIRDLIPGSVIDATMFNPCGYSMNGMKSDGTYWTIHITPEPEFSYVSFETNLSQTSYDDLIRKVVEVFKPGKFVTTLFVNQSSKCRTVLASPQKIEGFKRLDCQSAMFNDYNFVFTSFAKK
To be noted: previously reported AdoMetDC inhibitor; cited from earlier work.

Experiment [2] concerns the target T1, hAdoMetDC. In kind it is biochemical. Particulars: versus corresponding 8-H parent compound.

With `C[S+](C)C[C@H]1O[C@@H](n2cnc3c(N)ncnc32)[C@H](O)[C@@H]1O.[Cl-]` [Compound 25d, 5′-Deoxy-5′-dimethylsulfonioadenosine chloride], the Ki result on hAdoMetDC [1] is recorded as “μM range”.
As for `Cc1nc2c(N)ncnc2n1[C@@H]1O[C@H](CN(C)CCCCON)[C@@H](O)[C@H]1O.O=S(=O)(O)O` [Compound 14d, 5′-[(4-Aminooxybutyl)methylamino]-5′-deoxy-8-methyladenosine sulfate (1.9:1 salt)], the “reduction in the IC50 value / increase in potency when an 8-methyl substituent was added to the adenine ring” value on hAdoMetDC [2] is 3.4 fold.
